Assay results from patent publication US5962509A, “Dithiolylidene acetamide derivatives” (SSP Co., Ltd., priority 1997, dated 1999).

System: ovolysozyme
Assay: AGE formation inhibitory action: formation of lysozyme dimer (crosslinking) on incubation with xylose, SDS-PAGE with silver staining
Format: biochemical
Details: 1 mg/ml ovolysozyme, 100 mM xylose, pH 7.4 phosphate-buffered saline, 37° C., 21 days; dimer (28.8 Kda) formation relative to control
Procedure: Solutions of the test compound shown in Table 1 in dimethyl sulfoxide, said solutions containing said test compound at various concentrations, were each added together with 1 mg/ml of ovolysozyme and 100 mM of xylose to a phosphate-buffered physiological saline of pH 7.4. Each reaction mixture was then incubated at 37° C. for 21 days. A portion of the reaction mixture, said portion being in a predetermined amount, was then separated by sodium lauryl sulfate-polyacrylamide gel electrophoresis (SDS-PAGE). After the electrophoresis, the gel was treated by silver staining to stain proteins. AGE formation inhibitory action of the test compound was calculated in terms of 50% inhibitory concentration by image-processing and analyzing the degree of formation of the dimer (28.8 Kda) of lysozyme (14.4 Kda) relative to that in a control, that is, a reaction mixture not added with the test compound while making use of NIH Image Ver. 1.55.

| SMILES | AGE formation inhibitory action, 50% inhibitory concentration (IC50) [µg/mL] |
| --- | --- |
| NN=C(N)N [Amionoguanidine, aminoguanidine] | 30 |
| CCCN(CCC)C(=O)C(CCC(=O)O)NC(=O)C=C1SC=CS1 (centres unmarked) [Example 1, 5-(dipropylamino)-4-((2-(1,3-dithiol-2-ylidene)acetyl)amino)-5-oxopentanoic acid] | 30 |
